According to patent US12312359B2 (Vitae Pharmaceuticals, LLC, priority 2016, dated 2025):

Experiments:
[1] = target: T1, biotinylated wild-type menin and MLL-AF9 fusion protein (menin/MLL binding) (Homo sapiens, UniProt O00255); experiment: Assay 1: menin/MLL binding AlphaLISA assay, wild-type menin; conditions: Table 30; column head does not say wild-type or mutated menin
T1 construct: made in house; host or cells: menin: E. coli; MLL-AF9-FLAG: HEK293 cells, used as cleared lysate
T1 sequence (O00255 1-610): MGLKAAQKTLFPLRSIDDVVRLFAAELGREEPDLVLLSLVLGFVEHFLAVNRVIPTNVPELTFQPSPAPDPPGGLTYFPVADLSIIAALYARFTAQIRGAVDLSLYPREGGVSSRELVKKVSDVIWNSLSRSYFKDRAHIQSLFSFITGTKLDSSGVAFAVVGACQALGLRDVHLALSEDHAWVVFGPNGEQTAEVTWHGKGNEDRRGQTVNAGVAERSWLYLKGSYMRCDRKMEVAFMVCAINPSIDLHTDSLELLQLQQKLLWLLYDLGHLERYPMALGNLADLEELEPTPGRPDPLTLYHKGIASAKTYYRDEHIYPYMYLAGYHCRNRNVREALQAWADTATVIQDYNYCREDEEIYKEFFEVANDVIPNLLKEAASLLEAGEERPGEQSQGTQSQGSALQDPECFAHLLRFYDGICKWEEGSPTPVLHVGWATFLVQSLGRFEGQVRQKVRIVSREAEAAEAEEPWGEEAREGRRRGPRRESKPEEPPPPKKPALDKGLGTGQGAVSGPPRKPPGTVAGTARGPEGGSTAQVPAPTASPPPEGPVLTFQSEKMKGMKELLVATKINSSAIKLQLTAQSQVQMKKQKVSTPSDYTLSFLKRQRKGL
In short: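 Compound was preincubated 30 min at room temperature with biotinylated menin (5 nM) and MLL-AF9-FLAG lysate from HEK293 cells, pH 7.4 buffer with 5% DMSO and DTT. Bead-based Alpha signal after 60 min with streptavidin donor and anti-FLAG acceptor beads; four-parameter logistic fit gave IC50.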

[2] = test system: human acute monocytic leukemia cell line MV-4-11; experiment: Assay 2: cell proliferation assay (ATP quantitation, CellTiter-Glo), MV-4-11; type: cell-based; conditions: MV-4-11 cells
In short: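 MV-4-11 cells, 1.67×10^4 per well in medium with 10% FBS, were exposed to compound for 72 h at 37° C., 5% CO2; HL-60 cells served as toxicity control. Proliferation read as ATP content by CellTiter-Glo luminescence.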

Row | Compound | IC50 [1] [nM] | EC50 ([2]; Homo sapiens, MV4-11, 72 h) [nM] | EC50 ([2]; 72 h) [nM]
1 | CC(C)c1ncncc1-c1cc(F)ccc1Oc1cncnc1N1CCC2(CCN(Cc3ccc4c(c3)NC(=O)C4(C)C)C2)C1 (stereo not drawn) [Example 178, 6-((7-(5-(4-fluoro-2-(4-isopropylpyrimidin-5-yl)phenoxy)pyrimidin-4-yl)-2,7-diazaspiro[4.4]nonan-2-yl)methyl)-3,3-dimethylindolin-2-one] | < 100 | < 100 | –
2 | CC(C)c1ccccc1-c1cc(F)ccc1Oc1cncnc1N1CCC2(CCN(C[C@H]3CC[C@H](NC(=O)OC(C)(C)C)CC3)C2)C1 (stereo partly drawn) [Example 220, tert-butyl ((1r,4r)-4-((7-(5-((5-fluoro-2′-isopropyl-[1,1′-biphenyl]-2-yl)oxy)pyrimidin-4-yl)-2,7-diazaspiro[4.4]nonan-2-yl)methyl)cyclohexyl) carbamate] | < 100 | 100 to 1000 | –
3 | CC(C)N(C(=O)c1cc(F)ccc1Oc1cncnc1N1CC2(CCN(C(=O)CCc3ccc(F)cc3)C2)C1)C(C)C [Example 12, 5-fluoro-2-((4-(6-(3-(4-fluorophenyl)propanoyl)-2,6-diazaspiro[3.4]octan-2-yl)pyrimidin-5-yl)oxy)-N,N-diisopropylbenzamide] | < 100 | 100 to 1000 | –
4 | O=C(c1cc(F)ccc1Oc1cncnc1N1CCC2(CCN(Cc3ccc4[nH]c(=O)[nH]c4c3)C2)C1)N1C2CCC1CC2 (stereo not drawn) [Example 212, 5-((7-(5-(2-((1s,4s)-7-azabicyclo[2.2.1]heptane-7-carbonyl)-4-fluorophenoxy)pyrimidin-4-yl)-2,7-diazaspiro [4.4]nonan-2-yl)methyl)-1,3-dihydro-2H-benzo[d]imidazol-2-one] | < 100 | 100 to 1000 | –
5 | CC(C)N(C(=O)c1cc(F)ccc1Oc1cncnc1N1CC2(CCN(CC(C)(C)O)CC2)C1)C(C)C [Example 89, 5-fluoro-2-((4-(7-(2-hydroxy-2-methylpropyl)-2,7-diazaspiro[3.5]nonan-2-yl)pyrimidin-5-yl)oxy)-N,N-diisopropylbenzamide] | < 100 | 100 to 1000 | –
6 | CC(C)C(=O)c1cc(F)ccc1Oc1cncnc1N1CCC2(CCN(Cc3ccc4c(c3)NC(=O)C4(C)C#N)C2)C1 (stereo not drawn) [Example 11, 6-((7-(5-(4-fluoro-2-isobutyrylphenoxy)pyrimidin-4-yl)-2,7-diazaspiro[4.4]nonan-2-yl)methyl)-3-methyl-2-oxoindoline-3-carbonitrile] | < 100 | < 100 | –
7 | CC(C)N(C(=O)c1cc(F)ccc1Nc1cncnc1N1CCC2(CC1)CN(C[C@H]1CC[C@H](NC(=O)OC(C)(C)C)CC1)C2)C(C)C [Example 241, tert-butyl ((1r,4r)-4-((7-(5-((2-(diisopropylcarbamoyl)-4-fluorophenyl)amino)pyrimidin-4-yl)-2,7-diazaspiro [3.5]nonan-2-yl)methyl)cyclohexyl) carbamate] | < 100 | 100 to 1000 | –
8 | CC(C)N(C(=O)c1cc(F)ccc1Oc1cncnc1N1CC2(CCN(C[C@H]3CC[C@@H](NS(C)(=O)=O)CC3)CC2)C1)C(C)C [Example 6B, 5-fluoro-N,N-diisopropyl-2-((4-(7-(((1s,4s)-4-(methylsulfonamido)cyclohexyl)methyl)-2,7-diazaspiro[3.5]nonan-2-yl)pyrimidin-5-yl)oxy)benzamide] | < 100 | < 100 | –
9 | CC(C)N(C(=O)c1cc(F)ccc1Oc1cncnc1N1CC2(CN(CC[C@H]3CC[C@H](NC(=O)OC(C)(C)C)CC3)C2)C1)C(C)C [Example 115, tert-butyl ((1r,4r)-4-(2-(6-(5-(2-(diisopropylcarbamoyl)-4-fluorophenoxy)pyrimidin-4-yl)-2,6-diazaspiro[3.3]heptan-2-yl)ethyl)cyclohexyl) carbamate] | < 100 | < 100 | –
10 | CCc1ncccc1-c1cc(F)ccc1Oc1cncnc1N1CCC2(CCN(Cc3ccc4[nH]c(=O)[nH]c4c3)C2)C1 (stereo not drawn) [Example 234, 5-((7-(5-(2-(2-ethylpyridin-3-yl)-4-fluorophenoxy)pyrimidin-4-yl)-2,7-diazaspiro [4.4]nonan-2-yl)methyl)-1,3-dihydro-2H-benzo[d]imidazol-2-one] | < 100 | < 100 | –
11 | CC(C)Cc1cc(F)ccc1Oc1cncnc1N1CCC2(CCN(Cc3ccc4[nH]c(=O)[nH]c4c3)C2)C1 (stereo not drawn) [Example 236, 5-((7-(5-(4-fluoro-2-isobutylphenoxy)pyrimidin-4-yl)-2,7-diazaspiro[4.4]nonan-2-yl)methyl)-1,3-dihydro-2H-benzo[d]imidazol-2-one] | < 100 | 100 to 1000 | –
12 | CC(C)N(C(=O)c1cc(F)ccc1Oc1cncnc1N1CC2(CN(C(=O)Cc3ccc(C#N)cc3)C2)C1)C(C)C [Example 116, 2-((4-(6-(2-(4-cyanophenyl)acetyl)-2,6-diazaspiro[3.3]heptan-2-yl)pyrimidin-5-yl)oxy)-5-fluoro-N,N-diisopropylbenzamide] | < 100 | 100 to 1000 | –
13 | CC(C)c1ccccc1-c1cc(F)ccc1Oc1cncnc1N1CC2(CC(NCc3ccc(C#N)cc3)CO2)C1 (stereo not drawn) [Example 19, 4-(((2-(5-((5-fluoro-2′-isopropyl-[1,1′-biphenyl]-2-yl)oxy)pyrimidin-4-yl)-5-oxa-2-azaspiro[3.4]octan-7-yl)amino)methyl)benzonitrile] | < 100 | 100 to 1000 | –
14 | CC(C)N(C)C(=O)c1cc(F)ccc1Oc1cncnc1N1CCC2(CCN(Cc3ccc4[nH]c(=O)[nH]c4c3)C2)C1 (single isomer, unassigned) [Example 183B, 5-fluoro-N-isopropyl-N-methyl-2-((4-(7-((2-oxo-2,3-dihydro-1H-benzo[d]imidazol-5-yl)methyl)-2,7-diazaspiro[4.4]nonan-2-yl)pyrimidin-5-yl)oxy)benzamide] | < 100 | – | < 100
15 | N#Cc1ccc(-c2cc(F)ccc2Oc2cncnc2N2CC3(CN(CC4CCOCC4)C3)C2)c(C2CC2)c1 [Example 215, 2-cyclopropyl-5′-fluoro-2′-((4-(6-((tetrahydro-2H-pyran-4-yl)methyl)-2,6-diazaspiro[3.3]heptan-2-yl)pyrimidin-5-yl)oxy)-[1,1′-biphenyl]-4-carbonitrile] | < 100 | 100 to 1000 | –
16 | CC(C)N(C(=O)c1cc(F)ccc1Oc1cncnc1N1CC2(CC(NC3CCOCC3)C2)C1)C(C)C [Example 239, 5-fluoro-N,N-diisopropyl-2-((4-(6-((tetrahydro-2H-pyran-4-yl)amino)-2-azaspiro[3.3]heptan-2-yl)pyrimidin-5-yl)oxy)benzamide] | < 100 | < 100 | –
17 | CC(C)N(C)C(=O)c1cc(F)ccc1Oc1cncnc1N1CC2(CN(CC3CCCCC3)C2)C1 [Example 167, 2-((4-(6-(cyclohexylmethyl)-2,6-diazaspiro[3.3]heptan-2-yl)pyrimidin-5-yl)oxy)-5-fluoro-N-isopropyl-N-methylbenzamide] | < 100 | 100 to 1000 | –
18 | CCN(C(=O)C(C)C)c1cc(F)ccc1Oc1cncnc1N1CC2(CN(C(=O)Cc3ccc(S(C)(=O)=O)cc3)C2)C1 [Example 119, N-ethyl-N-(5-fluoro-2-((4-(6-(2-(4-(methylsulfonyl)phenyl)acetyl)-2,6-diazaspiro[3.3]heptan-2-yl)pyrimidin-5-yl)oxy)phenyl)isobutyramide] | < 100 | 100 to 1000 | –
19 | CCN(C(=O)c1cc(F)ccc1Oc1cncnc1N1CCC2(CCN(Cc3ccc4[nH]c(=O)[nH]c4c3)C2)C1)C(C)C (single isomer, unassigned) [Example 2A, N-ethyl-5-fluoro-N-isopropyl-2-((4-(7-((2-oxo-2,3-dihydro-1H-benzo[d]imidazol-5-yl)methyl)-2,7-diazaspiro[4.4]nonan-2-yl)pyrimidin-5-yl)oxy)benzamide] | < 100 | – | < 100
20 | CC(C)c1scnc1-c1cc(F)ccc1Oc1cncnc1N1CCC2(CCN(Cc3ccc4[nH]c(=O)[nH]c4c3)C2)C1 (stereo not drawn) [Example 190, 5-((7-(5-(4-fluoro-2-(5-isopropylthiazol-4-yl)phenoxy)pyrimidin-4-yl)-2,7-diazaspiro[4.4]nonan-2-yl)methyl)-1,3-dihydro-2H-benzo[d]imidazol-2-one] | < 100 | < 100 | –
21 | CC(C)c1ncncc1-c1cc(F)ccc1Oc1cncnc1N1CC2(CC(N(C)Cc3ccc(C#N)cc3)CO2)C1 (stereo not drawn) [Example 181, 4-(((2-(5-(4-fluoro-2-(4-isopropylpyrimidin-5-yl)phenoxy)pyrimidin-4-yl)-5-oxa-2-azaspiro[3.4]octan-7-yl)(methyl)amino)methyl)benzonitrile] | < 100 | 100 to 1000 | –
